± gives the expanded uncertainty stated by the source.
Settings: 298.15 K; 101.33 kPa; Liquid; Vibrating tube method

| mass density [kg/m3] | SMILES |
| --- | --- |
| 805.8 ± 0.2 | CCCCO [butan-1-ol] |
| 943.81 ± 0.2 | CN(C)C=O [dimethylformamide] |
| 894.4 ± 0.6 | CCOC(C)=O [ethyl acetate] |
| 764.96 ± 0.13 | CC1CCCCC1 [methylcyclohexane] |
| 1073.3 ± 0.42 | CC(=O)Oc1ccccc1 [phenyl ethanoate] |

| SMILES | mass density [kg/m3] |
| --- | --- |
| COC(=O)c1ccccc1C(=O)OC [dimethyl 1,2-benzenedicarboxylate] | 1186.9 ± 0.2 |

Source: the NIST ThermoML archive (doi:10.1016/j.fluid.2004.12.004)
